Experimental data taken from paper PMC6386767, “Characterization of recombinant fructose-1,6-bisphosphatase gene mutations: evidence of inhibition/activation of FBPase protein by gene mutation” (Bioscience Reports, 2019).
Where a chain is given by its changes, count along the chain named.

Tests used:
[1] = target: T1, pig kidney FBPase K112A (Sus scrofa, UniProt P00636, K113A); experiment: Malachite Green kinetic assay, K112A mutant; assay type: biochemical; settings: enzyme K112A vs WT
T1 construct: His6 (C); made in house; host or cells: Escherichia coli BL21 (DE3)
T1 sequence (P00636 1-338 K113A): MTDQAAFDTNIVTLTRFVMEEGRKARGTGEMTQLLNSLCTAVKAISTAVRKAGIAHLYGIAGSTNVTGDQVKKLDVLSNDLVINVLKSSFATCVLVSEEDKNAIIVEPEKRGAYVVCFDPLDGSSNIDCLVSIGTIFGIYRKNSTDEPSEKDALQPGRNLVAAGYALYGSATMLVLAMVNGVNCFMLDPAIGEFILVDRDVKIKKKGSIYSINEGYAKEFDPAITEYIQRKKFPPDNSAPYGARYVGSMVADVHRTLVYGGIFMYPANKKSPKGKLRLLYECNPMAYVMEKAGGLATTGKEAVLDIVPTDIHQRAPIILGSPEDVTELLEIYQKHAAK
Experimental: (§1) For the kinetic assay, a standard curve was obtained from an ammonium molybdate Malachite Green inorganic phosphate assay (OD660 nm). The purified FBPase protein was dialyzed ×3 in 50 mM Tris buffer at pH 7.5 at 4°C. For enzyme concentration, absorbency values were recorded for all five mutant proteins using spectrophotometer readings at OD280 nm. To quantitate enzyme concentration, the enzymes were calculated based on the quantity of micrograms per microliter (µg/µl) present. Final concentration of WT and mutant enzymes was between 2.5 and 5.0 µg/µl. Using a colorimetric assay as described below, specific activity (SA) was determined. At last, all kinetic and binding assays described below were performed in 50 mM Tris pH 7.5.
(§2) Kinetic assays were performed for WT and mutant enzymes to identify functional differences between the WT enzyme and the mutants. […] Readings recorded at OD660 nm for each enzyme were applied to the standard curve equation. Micromoles of inorganic phosphate were calculated to determine the SA of mutant enzymes.
(§3) For each clone, the kinetic assay was performed in duplicates of triplicates. Malachite Geen was used to detect inorganic phosphate. Two separate clones were processed independently of the same mutant. All kinetic data were fit to symmetric sigmoidal curve using Origin software based on methods previously described [[27–29]]. More specifically, for kinetic parameters established via curve fitting (shown in Tables 1–3; and in Figure 5A,B), the equation y = d + (a − d)/1 + (x/c)^b was used where ‘x’ is represented by apparent Michelis constant (Km) when y = Vmax. […] P-values were significant at <0.001 and represent a comparison with the WT enzyme.

[2] = target: T2, pig kidney FBPase Y113A (Sus scrofa, UniProt P00636, Y114A); experiment: Malachite Green kinetic assay, Y113A mutant; assay type: biochemical; settings: enzyme Y113A vs WT
T2 construct: His6 (C); made in house; host or cells: Escherichia coli BL21 (DE3)
T2 sequence (P00636 1-338 Y114A): T1 sequence (P00636 1-338 K113A) with A113K, Y114A
Experimental: as §1, §2, §3

O=C(COP(=O)(O)O)[C@@H](O)[C@H](O)[C@H](O)COP(=O)(O)O [FBP, fructose-1,6-bisphosphate]
greater binding to the FBP substrate compared with WT [1]: 2 ×
greater binding to the FBP substrate compared with WT [2]: 2 ×
